From patent US20220144838A1, “Compounds as Inhibitors of Macrophage Migration Inhibitory Factor” (NANJING IMMUNOPHAGE BIOTECH CO., LTD., priority 2019, published 2022)

Molecular target: T1, MIF (Homo sapiens, UniProt P14174)
T1 sequence (P14174 2-115 limits assumed): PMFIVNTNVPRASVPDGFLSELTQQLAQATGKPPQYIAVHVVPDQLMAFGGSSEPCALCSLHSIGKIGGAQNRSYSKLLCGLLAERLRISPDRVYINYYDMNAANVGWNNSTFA
Test: MIF tautomerase assay using pHPP as substrate
Type: biochemical
Settings: inhibition of the MIF enzyme in vitro; mean of multiple test results; read-out: Tautomerase Inhibition pIC50 (converted)
Method in brief: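 Cell-free keto-to-enol tautomerization of pHPP, enol product detected spectrophotometrically as borate complex. Final 3 nM MIF and 1.5 mM ketonic pHPP in DPBS/boric acid buffer with 0.025% BSA and 300 μM CHAPS, pH 6.0, room temperature; initial rates from absorbance slopes give mean pIC50.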

Row | SMILES | IC50 [nM]
1 | COC(=O)c1ccc(-n2cnc3c(N)nc(N4CCN(c5ccc(O)cc5)CC4)nc32)cc1 [Example 101, methyl 4-(6-amino-2-(4-(4-hydroxyphenyl)piperazin-1-yl)-9H-purin-9-yl)benzoate] | 100 to 977
2 | O=C(O)Cn1cnc2c(N3N=CC4C=CC=CC43)nc(N3CCN(c4ccccc4)CC3)nc21 (stereo not shown) [Example 48, 2-(6-(3a,7a-dihydro-1H-indazol-1-yl)-2-(4-phenylpiperazin-1-yl)-9H-purin-9-yl)acetic acid] | 100 to 977
3 | OCCn1cnc2c(-n3ncc4ccccc43)nc(N3CCC(O)(c4ccc(F)cc4)CC3)nc21 [Example 224, 4-(4-fluorophenyl)-1-(9-(2-hydroxyethyl)-6-(1H-indazol-1-yl)-9H-purin-2-yl)piperidin-4-ol] | 1000 to 9770
4 | OCCn1cnc2c(-n3ncc4ccccc43)nc(N3CCC(O)(c4ccc(O)cc4)CC3)nc21 [Example 158, 1-(9-(2-hydroxyethyl)-6-(1H-indazol-1-yl)-9H-purin-2-yl)-4-(4-hydroxyphenyl)piperidin-4-ol] | 100 to 977
5 | CC(C)(C(=O)O)n1cnc2c(-n3ncc4ccccc43)nc(N3CCN(c4ccc(O)cn4)CC3)nc21 [Example 141, 2-(2-(4-(5-hydroxypyridin-2-yl)piperazin-1-yl)-6-(1H-indazol-1-yl)-9H-purin-9-yl)-2-methylpropanoic acid] | 10 to 97.7
6 | Nc1nc(N2CCN(c3ccc(O)cc3)CC2)nc2c1ncn2-c1ccc(Cl)cc1 [Example 75, 4-(4-(6-amino-9-(4-chlorophenyl)-9H-purin-2-yl)piperazin-1-yl)phenol] | > 10000
7 | Nc1nc(N2CCN(c3ccc(O)cc3)CC2)nc2c1ncn2-c1ccc(F)cc1 [Example 73, 4-(4-(6-amino-9-(4-fluorophenyl)-9H-purin-2-yl)piperazin-1-yl)phenol] | > 10000
8 | O=C(O)Cn1cnc2c(-n3cnc4ccccc43)nc(N3CCN(c4ccc(O)cc4)CC3)nc21 [Example 41, 2-(6-(1H-benzo[d]imidazol-1-yl)-2-(4-(4-hydroxyphenyl)piperazin-1-yl)-9H-purin-9-yl)acetic acid] | 10 to 97.7
9 | Oc1ccc(N2CCN(c3cc(-n4ncc5ccccc54)n4ncc(-c5cccnc5)c4n3)CC2)cc1 [Example 14, 4-(4-(7-(1H-indazol-1-yl)-3-(pyridin-3-yl)pyrazolo[1,5-a]pyrimidin-5-yl)piperazin-1-yl)phenol] | 1000 to 9770
10 | O=C(O)Cn1cnc2c(-n3ncc4ccccc43)nc(N3CCN(c4ccc5[nH]ncc5c4)CC3)nc21 [Example 140, 2-(2-(4-(1H-indazol-5-yl)piperazin-1-yl)-6-(1H-indazol-1-yl)-9H-purin-9-yl)acetic acid] | > 10000
11 | CN1CCN(c2nc(N3CCN(c4ccc(O)cc4)CC3)nc3c2ncn3-c2ccncc2)CC1 [Example 179, 4-(4-(6-(4-methylpiperazin-1-yl)-9-(pyridin-4-yl)-9H-purin-2-yl)piperazin-1-yl)phenol] | 1000 to 9770
12 | COc1cccc2c1cnn2-c1nc(N2CCN(c3ccc(O)cc3)CC2)nc2c1ncn2CC(=O)O [Example 107, 2-(6-(4-methoxy-1H-indazol-1-yl)-2-(4-(4-hydroxyphenyl)piperazin-1-yl)-9H-purin-9-yl)acetic acid] | 10 to 97.7
13 | O=C(O)Cn1cnc2c(-n3ncc4ccc(C(=O)O)cc43)nc(N3CCN(c4ccc(O)cc4)CC3)nc21 [Example 104, 1-(9-(carboxymethyl)-2-(4-(4-hydroxyphenyl)piperazin-1-yl)-9H-purin-6-yl)-1H-indazole-6-carboxylic acid] | 1000 to 9770
14 | CCOC(=O)Cn1cnc2c(-n3ncc4ccccc43)nc(N3CCN(c4ccc(O)cc4)CC3)nc21 [Example 44, ethyl 2-(2-(4-(4-hydroxyphenyl)piperazin-1-yl)-6-(1H-indazol-1-yl)-9H-purin-9-yl)acetate] | 100 to 977
15 | Nc1nc(N2CCN(c3ccc(O)cc3)CC2)nc2c1ncn2-c1ccc(Cl)cc1Cl [Example 69, 4-(4-(6-amino-9-(2,4-dichlorophenyl)-9H-purin-2-yl)piperazin-1-yl)phenol] | > 10000
16 | O=C(O)CCn1cnc2c(N3CCc4ccccc43)nc(N3CCN(c4ccc(O)cc4)CC3)nc21 [Example 8, 3-(2-(4-(4-hydroxyphenyl)piperazin-1-yl)-6-(indolin-1-yl)-9H-purin-9-yl)propanoic acid] | 100 to 977
17 | CCC(CO)Nc1nc(N2CCN(c3ccc(O)cc3)CC2)nc2c1ncn2-c1cccnc1 (stereo not shown) [Example 114] | 100 to 977
18 | Cc1cccc2c1nnn2-c1nc(N2CCN(c3ccc(O)cc3)CC2)nc2c1ncn2CC(=O)O [Example 20, 2-(2-(4-(4-hydroxyphenyl)piperazin-1-yl)-6-(4-methyl-1H-benzo[d][1,2,3]triazol-1-yl)-9H-purin-9-yl)acetic acid] | 10 to 97.7
19 | O=C(O)Cn1cnc2c(-n3ncc4ccccc43)nc(N3CC(O)(c4ccc(O)cc4)C3)nc21 [Example 216, 2-(2-(3-hydroxy-3-(4-hydroxyphenyl)azetidin-1-yl)-6-(1H-indazol-1-yl)-9H-purin-9-yl)acetic acid] | 10 to 97.7
20 | Oc1ccc(C2(O)CCN(c3nc(Nc4ccncc4)c4nc[nH]c4n3)CC2)cc1 [Example 219, 4-(4-hydroxyphenyl)-1-(6-(pyridin-4-ylamino)-9H-purin-2-yl)piperidin-4-ol] | 100 to 977
21 | OCC1CCN(c2nc(N3CCN(c4ccc(O)cc4)CC3)nc3c2ncn3-c2cccnc2)C1 (stereo not shown) [Example 94, 4-(4-(6-(3-(hydroxymethyl)pyrrolidin-1-yl)-9-(pyridin-3-yl)-9H-purin-2-yl)piperazin-1-yl)phenol] | 100 to 977
22 | OCCn1cnc2c(-n3cnc4ccccc43)nc(N3CCN(c4ccc(O)cc4)CC3)nc21 [Example 9, 4-(4-(6-(1H-benzo[d]imidazol-1-yl)-9-(2-hydroxyethyl)-9H-purin-2-yl)piperazin-1-yl)phenol] | 100 to 977
23 | CCC(C(=O)O)n1cnc2c(-n3ncc4ccccc43)nc(N3CCN(c4ccc(O)cc4)CC3)nc21 (stereo not shown) [Example 127, 2-(2-(4-(4-hydroxyphenyl)piperazin-1-yl)-6-(1H-indazol-1-yl)-9H-purin-9-yl)butanoic acid] | 10 to 97.7
24 | O=C(O)CCN(CCO)c1nc(N2CCN(c3ccc(O)cc3)CC2)nc2c1ncn2-c1ccncc1 [Example 168, 3-((2-hydroxyethyl)(2-(4-(4-hydroxyphenyl)piperazin-1-yl)-9-(pyridin-4-yl)-9H-purin-6-yl)amino)propanoic acid] | 10 to 97.7
25 | Cc1nc(N2CCC(O)(c3ccc(O)cc3)CC2)nc2c1ncn2-c1cccnc1 [Example 204, 4-(4-hydroxyphenyl)-1-(6-methyl-9-(pyridin-3-yl)-9H-purin-2-yl)piperidin-4-ol] | 10 to 97.7
26 | O=C(O)Cn1cnc2c(-n3nnc4c(CO)cccc43)nc(N3CCN(c4ccc(O)cc4)CC3)nc21 [Example 123, 2-(6-(4-(hydroxymethyl)-1H-benzo[d][1,2,3]triazol-1-yl)-2-(4-(4-hydroxyphenyl)piperazin-1-yl)-9H-purin-9-yl)acetic acid] | 10 to 97.7
27 | CN1CCN(c2nc(N3CCN(c4ccc(O)cc4)CC3)nc3c2ncn3-c2ccncc2)CC1=O [Example 175, 4-(2-(4-(4-hydroxyphenyl)piperazin-1-yl)-9-(pyridin-4-yl)-9H-purin-6-yl)-1-methylpiperazin-2-one] | 10 to 97.7
28 | C#CCn1cnc2c(-n3ncc4ccccc43)nc(N3CCC(O)(c4ccc(O)cc4)CC3)nc21 [Example 222, 1-(6-(1H-indazol-1-yl)-9-(prop-2-yn-1-yl)-9H-purin-2-yl)-4-(4-hydroxyphenyl)piperidin-4-ol] | 100 to 977
